Test results: ChEMBL document CHEMBL1201862, “PubChem BioAssay data set” (2004)
Values joined by “and” are separate entries in the source; they are usually repeats but may differ in a detail not shown here. Identical values can stand only once. Active and inactive are the calls of the source.

Legend:
Streptococcus = assay: GAS UMAA2166 growth inhibition – luminescence, BacTiterGlo, counter-screen for streptokinase expression inhibitor project, dose response (AID 1915); format: functional, organism-based;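 further: potency for reduction of bacterial viability or growth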
Streptokinase A = target: T1, Streptokinase A (Streptococcus pyogenes serotype M1, UniProt P10520); assay: viability-normalized secreted streptokinase activity reduction – plasminogen activation absorbance, OD405, dose response (AID 1914); format: functional, Streptococcus pyogenes M1 GAS;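 further: secreted streptokinase activity via plasminogen activation per viability signal from cell pellet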
T1 sequence (P10520 whole entry): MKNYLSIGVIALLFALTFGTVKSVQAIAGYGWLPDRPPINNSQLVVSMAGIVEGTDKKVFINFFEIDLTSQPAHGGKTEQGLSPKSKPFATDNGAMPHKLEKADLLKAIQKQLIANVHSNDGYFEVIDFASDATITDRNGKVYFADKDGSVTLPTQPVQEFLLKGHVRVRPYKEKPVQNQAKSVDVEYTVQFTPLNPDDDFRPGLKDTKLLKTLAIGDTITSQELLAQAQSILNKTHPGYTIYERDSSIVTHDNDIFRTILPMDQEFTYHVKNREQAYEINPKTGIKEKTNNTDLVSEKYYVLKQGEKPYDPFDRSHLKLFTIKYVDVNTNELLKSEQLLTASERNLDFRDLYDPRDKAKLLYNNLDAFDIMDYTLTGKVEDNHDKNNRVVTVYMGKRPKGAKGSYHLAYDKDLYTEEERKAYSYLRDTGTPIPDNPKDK

[1] = test system: Streptococcus sp. 'group A'; assay: Streptococcus pyogenes SK(-)GAS viability under kanamycin – luminescence, BacTiterGlo, confirmation, counter-screen for streptokinase expression inhibitor project, dose response (AID 1900); format: functional, organism-based
Cytochrome P450 2C19 = Cytochrome P450 2C19 (Homo sapiens, UniProt P33261); assay: Cytochrome panel assay with activity outcomes. Panel member name: p450-cyp2c19 Compounds with AC50 equal or less than 10 uM are considered active; format: functional
Cytochrome P450 2C9 = Cytochrome P450 2C9 (Homo sapiens, UniProt P11712)
Cytochrome P450 3A4 = Cytochrome P450 3A4 (Homo sapiens, UniProt P08684);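 further: CYP3A4 tested as one member of a cytochrome P450 panel screen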
Cytochrome P450 2D6 = Cytochrome P450 2D6 (Homo sapiens, UniProt P10635);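 further: CYP2D6 member of a cytochrome P450 panel assay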
[2] = NIH3T3 cell viability loss – ATP luminescence, mouse fibroblasts, counter-screen, dose response (AID 2010); format: functional, cell-based;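 further: cells exposed to compound for about 90 hours before reading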
[3] = Trypanosoma cruzi growth suppression in host cells – NIH3T3 host cells, beta-gal luminescence, confirmation (AID 2044); format: functional, cell-based;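 further: intracellular parasites grown in NIH/3T3 mouse fibroblasts as host cells; luminescent beta-galactosidase reporter signal from transgenic T. cruzi replicating inside host cells; inhibitors lower the luminescence signal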
[4] = target: T2, Corticotropin-releasing factor receptor 2/Corticotropin-releasing factor-binding protein (Homo sapiens, UniProt P24387+Q13324); assay: activators of CRF receptor 2 with binding protein – uHTS hits, confirmation (AID 602473); format: functional; conditions: read-out: EC50_Mean
T2 sequence (Q13324 whole entry): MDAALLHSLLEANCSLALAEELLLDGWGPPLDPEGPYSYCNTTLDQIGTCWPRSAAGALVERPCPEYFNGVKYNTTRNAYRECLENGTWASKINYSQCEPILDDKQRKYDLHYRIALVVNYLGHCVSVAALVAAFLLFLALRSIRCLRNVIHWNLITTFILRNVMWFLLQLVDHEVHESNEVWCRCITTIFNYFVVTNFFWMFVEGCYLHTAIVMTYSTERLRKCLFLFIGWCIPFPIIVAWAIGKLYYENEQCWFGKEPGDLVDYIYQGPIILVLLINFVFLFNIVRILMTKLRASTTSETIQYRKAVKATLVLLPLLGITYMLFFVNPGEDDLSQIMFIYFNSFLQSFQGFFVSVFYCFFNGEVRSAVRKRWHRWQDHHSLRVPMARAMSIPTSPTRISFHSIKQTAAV
T2 sequence (P24387 whole entry): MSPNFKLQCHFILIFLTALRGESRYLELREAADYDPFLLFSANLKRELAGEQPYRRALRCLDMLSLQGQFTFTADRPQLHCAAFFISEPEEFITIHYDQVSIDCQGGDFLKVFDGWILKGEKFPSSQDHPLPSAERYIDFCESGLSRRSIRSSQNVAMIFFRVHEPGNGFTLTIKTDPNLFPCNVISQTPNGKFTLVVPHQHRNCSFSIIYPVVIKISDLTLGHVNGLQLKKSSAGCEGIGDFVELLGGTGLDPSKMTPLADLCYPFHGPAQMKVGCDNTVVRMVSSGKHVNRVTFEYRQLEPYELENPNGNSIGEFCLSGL

INS1 = assay: INS-1E survival protection against cytokine death – cell-based, luminescence, retest, dose response (AID 449756); format: functional; conditions: Rattus norvegicus;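 further: cell death triggered by IL-1 beta plus TNF-alpha plus IFN-gamma mixture; protective hits raise ATP signal compared with cytokine alone wells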

Cytochrome P450 3A4, sequence (P08684 whole entry): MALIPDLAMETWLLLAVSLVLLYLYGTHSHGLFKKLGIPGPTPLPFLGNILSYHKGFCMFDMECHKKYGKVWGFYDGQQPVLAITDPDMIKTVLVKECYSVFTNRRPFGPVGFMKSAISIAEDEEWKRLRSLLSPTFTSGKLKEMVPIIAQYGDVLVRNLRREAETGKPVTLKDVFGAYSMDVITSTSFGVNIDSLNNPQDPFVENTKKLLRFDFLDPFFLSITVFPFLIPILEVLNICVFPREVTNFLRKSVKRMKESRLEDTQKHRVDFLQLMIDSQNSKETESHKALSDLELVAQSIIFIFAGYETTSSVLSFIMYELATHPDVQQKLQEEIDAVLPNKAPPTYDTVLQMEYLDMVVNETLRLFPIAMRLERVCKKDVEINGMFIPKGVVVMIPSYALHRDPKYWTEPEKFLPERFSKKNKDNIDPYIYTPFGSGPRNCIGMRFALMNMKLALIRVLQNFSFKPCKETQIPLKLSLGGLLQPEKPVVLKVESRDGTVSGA
Cytochrome P450 2D6, sequence (P10635 whole entry): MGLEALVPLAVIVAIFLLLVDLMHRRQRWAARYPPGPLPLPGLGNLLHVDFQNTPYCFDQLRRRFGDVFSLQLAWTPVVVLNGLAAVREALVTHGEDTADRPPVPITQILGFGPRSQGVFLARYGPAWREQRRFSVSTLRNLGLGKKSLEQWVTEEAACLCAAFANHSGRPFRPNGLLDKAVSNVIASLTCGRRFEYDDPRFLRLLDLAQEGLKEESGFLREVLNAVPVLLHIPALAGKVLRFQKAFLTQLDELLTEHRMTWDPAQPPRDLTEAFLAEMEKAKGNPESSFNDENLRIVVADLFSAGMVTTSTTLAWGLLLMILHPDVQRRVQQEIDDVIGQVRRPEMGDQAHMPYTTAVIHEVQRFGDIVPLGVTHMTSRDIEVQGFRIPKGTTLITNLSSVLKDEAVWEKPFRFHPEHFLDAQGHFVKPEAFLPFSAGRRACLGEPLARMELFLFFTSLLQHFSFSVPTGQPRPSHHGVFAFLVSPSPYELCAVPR
Cytochrome P450 2C19, sequence (P33261 whole entry): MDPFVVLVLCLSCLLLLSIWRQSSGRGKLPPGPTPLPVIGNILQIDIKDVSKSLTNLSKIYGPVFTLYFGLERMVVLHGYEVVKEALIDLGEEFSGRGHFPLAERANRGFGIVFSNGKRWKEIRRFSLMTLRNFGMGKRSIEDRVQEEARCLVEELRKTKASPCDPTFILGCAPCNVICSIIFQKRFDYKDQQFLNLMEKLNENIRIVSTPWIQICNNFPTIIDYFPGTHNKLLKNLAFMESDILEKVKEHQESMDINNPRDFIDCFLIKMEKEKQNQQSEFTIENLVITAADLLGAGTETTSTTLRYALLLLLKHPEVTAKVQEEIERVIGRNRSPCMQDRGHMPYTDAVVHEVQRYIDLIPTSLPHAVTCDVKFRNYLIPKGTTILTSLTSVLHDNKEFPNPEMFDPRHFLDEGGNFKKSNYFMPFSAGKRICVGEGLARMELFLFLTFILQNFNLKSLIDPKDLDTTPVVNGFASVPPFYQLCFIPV
Cytochrome P450 2C9, sequence (P11712 whole entry): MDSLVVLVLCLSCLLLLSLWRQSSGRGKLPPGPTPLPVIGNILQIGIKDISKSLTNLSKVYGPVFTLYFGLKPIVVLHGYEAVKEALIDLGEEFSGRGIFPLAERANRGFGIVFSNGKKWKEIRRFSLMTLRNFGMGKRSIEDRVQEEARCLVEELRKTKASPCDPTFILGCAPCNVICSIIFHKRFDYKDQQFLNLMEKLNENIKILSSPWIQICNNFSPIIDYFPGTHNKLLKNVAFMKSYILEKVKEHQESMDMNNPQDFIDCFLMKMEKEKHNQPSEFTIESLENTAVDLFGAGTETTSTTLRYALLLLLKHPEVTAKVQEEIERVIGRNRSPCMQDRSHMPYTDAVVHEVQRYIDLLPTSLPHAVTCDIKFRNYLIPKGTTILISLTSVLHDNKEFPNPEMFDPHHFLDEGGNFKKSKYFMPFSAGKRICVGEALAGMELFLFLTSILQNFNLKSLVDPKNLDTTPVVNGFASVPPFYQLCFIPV

**Q.** For `c1ccc(-n2c3ccccc3c3ccccc32)cc1`, which EC50 (Streptococcus) is on record?
**A.** Its EC50 is > 150 µM (not active).

**Q.** And the EC50 (Streptokinase A)?
**A.** Its EC50 is > 150 µM (not active).

**Q.** And the EC50 [1]?
**A.** The EC50 was 6.43 µM (active).

**Q.** For `O=c1[nH]c(=S)[nH]nc1Cc1ccccc1`, which AC50 (Cytochrome P450 2C19) is on record?
**A.** Its AC50 is “inconclusive”.

**Q.** And the AC50 (Cytochrome P450 2C9)?
**A.** Its AC50 is 39.8 µM (inconclusive).

**Q.** With `CCCn1nc2cc(C(=O)NCCc3ccc(C)cc3)ccc2c1OCC` as the compound, how does the AC50 (Cytochrome P450 2C9) read?
**A.** Its AC50 is 39.8 µM (inconclusive).

**Q.** For `O=C(Nc1nc(-c2ccccc2)cs1)c1ccc(Br)o1`, which AC50 (Cytochrome P450 2C9) is on record?
**A.** The AC50 was 11.2 µM (inconclusive).

**Q.** And the AC50 (Cytochrome P450 3A4)?
**A.** Its AC50 is 31.6 µM (inconclusive).

**Q.** For `Cc1ccc(CNC(=O)C2CCC(=O)N2C2CCCCC2)cc1` (configuration not stated), which AC50 (Cytochrome P450 2C9) is on record?
**A.** Its AC50 is 7.08 µM (inconclusive).

**Q.** Which results are given for `CCN(CC)CCn1c(=S)[nH]c2cc3c(cc2c1=O)OCO3`?
**A.** AC50 (Cytochrome P450 2C19; read-out: AC50): 39.8 µM (inconclusive); AC50 (Cytochrome P450 3A4): 14.1 µM (inconclusive)

**Q.** Which AC50 (Cytochrome P450 2C9) does the source give for `CN(Cc1ccco1)c1nc(-c2cccc(C#N)c2)nc2ccccc12` here?
**A.** The AC50 was 1 µM (inconclusive).

**Q.** Which results are given for `Cc1noc(C)c1C(=O)Nc1ccc2ccccc2c1`?
**A.** EC50 (Streptococcus): > 150 µM (not active); EC50 (Streptokinase A): > 150 µM (not active); EC50 [1]: > 150 µM (not active)

**Q.** With `COc1cccc([C@@H]2Oc3ccc(Br)cc3C(=O)[C@H]2O)c1` as the compound, how does the AC50 (Cytochrome P450 3A4) read?
**A.** Its AC50 is 6.31 µM (inconclusive).

**Q.** Which AC50 (Cytochrome P450 2C19; read-out: AC50) does the source give for `c1ccc(Nc2nc(-c3ccoc3)nc3ccccc23)cc1` here?
**A.** The AC50 was 31.6 µM (inconclusive).

**Q.** What about the AC50 (Cytochrome P450 2D6) of the same compound?
**A.** Its AC50 is 39.8 µM (inconclusive).

**Q.** What about the AC50 (Cytochrome P450 3A4) of the same compound?
**A.** Its AC50 is 20 µM (inconclusive).

**Q.** For `O=C(NNC1=Nc2cccc3cccc1c23)c1ccc(Br)cc1`, which EC50 [2] is on record?
**A.** Its EC50 is 6.29 µM (active).

**Q.** And the EC50 (Streptococcus)?
**A.** Its EC50 is 10.6 µM (active).

**Q.** And the EC50 [3]?
**A.** Its EC50 is 1.12 µM (active).

**Q.** What about the EC50 (Streptokinase A) of the same compound?
**A.** The EC50 was > 150 µM (not active).

**Q.** What about the EC50 [1] of the same compound?
**A.** The EC50 was 0.324 µM (active).

**Q.** For `CCOC(=O)C1CCCN(c2ncnc3c2cnn3-c2ccc(Cl)cc2)C1` (configuration not stated), which AC50 (Cytochrome P450 2C19; read-out: AC50) is on record?
**A.** Its AC50 is 22.4 µM (inconclusive).

**Q.** What about the EC50 [4] of the same compound?
**A.** The EC50 was > 53 µM (inactive).

**Q.** And the AC50 (Cytochrome P450 3A4)?
**A.** Its AC50 is 25.1 µM (inconclusive).

**Q.** For `COc1ccc(C2/C=C\CN(C(=O)C3CC3)[C@H](Cc3ccccc3)C(=O)N2Cc2ccc(F)cc2)cc1` (some centres not stated), which AC50 (INS1) is on record?
**A.** The AC50 was 13.5 µM (active).

**Q.** For `COc1ccc2[nH]cc(CCNc3ccnc(-c4ccoc4)n3)c2c1`, which AC50 (Cytochrome P450 2C9) is on record?
**A.** Its AC50 is 0.794 µM (inconclusive).

**Q.** What does the source list for `CCOP(=O)(Cc1ccc(C(=O)CC)o1)OCC`?
**A.** EC50 (Streptococcus): > 150 µM (not active); EC50 (Streptokinase A): > 150 µM (not active); EC50 [1]: > 150 µM (not active)

**Q.** With `O=C1NC(=O)/C(=C\c2ccc(OCc3ccccc3)cc2)S1` as the compound, how does the EC50 (Streptococcus) read?
**A.** Its EC50 is > 150 µM (not active).

**Q.** What about the EC50 (Streptokinase A) of the same compound?
**A.** The EC50 was > 50 µM (not active).

**Q.** What about the EC50 [1] of the same compound?
**A.** The EC50 was 52.8 µM (active).

**Q.** With `Cc1cccc(C)c1NC(=O)C(c1ccccc1)N1CCC1=O` (configuration not stated) as the compound, how does the AC50 (Cytochrome P450 2C19; read-out: AC50) read?
**A.** The AC50 was 20 µM (inconclusive).

**Q.** What about the AC50 (Cytochrome P450 3A4) of the same compound?
**A.** Its AC50 is 25.1 µM (inconclusive).

**Q.** Which AC50 (Cytochrome P450 2D6) does the source give for `CN(C)C(=O)c1ccc(-c2cncnc2-n2ccnc2)cc1` here?
**A.** Its AC50 is 25.1 µM (inconclusive).

**Q.** What about the AC50 (Cytochrome P450 3A4) of the same compound?
**A.** Its AC50 is 10 µM (inconclusive).

**Q.** With `CCCCNC(=O)C(=O)NC(C)CCc1ccccc1` (configuration not stated) as the compound, how does the AC50 (Cytochrome P450 2C9) read?
**A.** Its AC50 is 17.8 µM (inconclusive).

**Q.** With `CN=C(S)NNC(=O)c1sccc1OCc1ccc(C)cc1` as the compound, how does the AC50 (Cytochrome P450 3A4) read?
**A.** Its AC50 is 15.8 µM (inconclusive).

**Q.** For `CCn1cc(CN2CCC(n3nccc3NC(=O)Cc3ccccc3)CC2)cn1`, which EC50 (Streptococcus) is on record?
**A.** The EC50 was > 150 µM (not active).

**Q.** And the EC50 (Streptokinase A)?
**A.** Its EC50 is > 150 µM (not active).

**Q.** What about the EC50 [1] of the same compound?
**A.** The EC50 was > 150 µM (not active).

**Q.** For `COc1cc(C[C@H](C)N)c(OC)cc1I`, which AC50 (Cytochrome P450 3A4) is on record?
**A.** The AC50 was 1.58 µM (inconclusive) and 31.6 µM (inconclusive).

**Q.** Which results are given for `COc1ccc(-c2nc3cnc(OC)nc3n(Cc3cccs3)c2=O)cc1`?
**A.** AC50 (Cytochrome P450 2C9): 5.01 µM (inconclusive); AC50 (Cytochrome P450 2D6): 7.94 µM (inconclusive)
